{
  "source": "patent US20250352555A1",
  "about": "“METHOD OF INCREASING IMMUNE CELL ACTIVATION AND/OR TREATING CANCER USING DIBENZOXAZEPINONES” (VASCULAR THERAPEUTICS PTY LTD, priority 2022, published 2025)",
  "key": {"resistant melanoma PDX": {"system": "resistant melanoma PDX", "settings": "resistant melanoma PDX model; cited from earlier work"}, "PD-1 [1]": {"system": "PD-1", "test": "Flow cytometry with anti-PD-1 antibodies, Jurkat T cells", "type": "cell-based, human", "settings": "same concentration range as BT2, 48 h (FIG. 17B)", "experimental": "Flow cytometry with anti-PD-1 antibodies. Jurkat T cells were grown in 6 well plates containing RPMI 1640 and 10% FBS. After 24 h, the cells were treated with various concentrations of BT2 or BT3 for 48 h. Alternatively, the cells were incubated with 3 μM BT2 for various times. After treatment, the cells were washed with PBS, and centrifuged at 300×g for 5 min, and resuspended at 5×10^6 cells/ml. The cells were then incubated with BV421 conjugated mouse anti-human CD279 (PD-1) (BD, cat. no. 562516) or BV421 conjugated mouse IgG1 (BD, cat. no. 562438) for 45 min at 22° C. Cells were then washed twice with 1 ml of Stain Buffer, centrifuged and pellets were resuspended in 0.5 ml Stain Buffer. Stained cell suspensions were analyzed by flow cytometry using a BD FACSCanto (II).\nJurkat T cells express PD-1 (Yi et al., 2023) and are widely used as model human T cells (e.g., Repas et al., 2022). […] BT2's effects were not only dose-dependent but time-dependent. BT2 (3 μM) inhibited PD-1 levels by 50% after 24 h and by 80% after 48 h (FIG. 17C)."}, "PD-1 [2]": {"system": "PD-1", "test": "Western blotting for PD-1, Jurkat T cells", "type": "cell-based, human", "settings": "24 h; for PD-1 expression (Western blot): various concentrations", "experimental": "(§1) Western blotting. Cells were treated with compounds and times indicated and total cell lysates were prepared in RIPA buffer. Lysates (10 μg) were resolved by SDS-PAGE and transferred to Immobilon-P polyvinylidene difluoride (PVDF) membranes (Millipore, USA).\n(§2) Membranes were blocked with 5% skim milk and incubated with rabbit monoclonal anti-c-Jun (Abcam, cat. no. ab32137; mouse, rat and human reactive) antibody, rabbit monoclonal anti-PD-1 (Abcam, cat. no. ab214421) antibody, mouse monoclonal β-actin antibody (Sigma-Aldrich, cat. no. A5316), anti-phospho-SAPK/JNK (Thr^183/Tyr^185) (98F2) (CST, cat. no. 4671) antibody, anti-phospho-p44/42 MAPK (ERK1/2) (Thr^202/Tyr^204) (D13.14.4E) (CST, cat. no. 4370) antibody, anti-phospho-p38 MAPK (Thr^180/Tyr^182) (D3F9) (CST, cat. no. 4511) antibody, anti-SAPK/JNK antibody (CST, cat. no. 9252), anti-p44/42 MAPK (ERK1/2) (137F5) antibody (CST, cat. no. 4695), anti-p38 MAPK antibody (CST, cat. no. 9212), anti-DUSP8 antibody (Abcam, cat. no. ab198175) or anti-c-MAF (BLR045F) antibody (Abcam, cat. no. ab243901). This was followed by incubation with horseradish peroxidase-conjugated secondary goat anti-rabbit (DAKO, cat. no. P0448) or goat anti-mouse (DAKO, cat. no. P0447) antibody. Chemiluminescence was detected using the Western Lightning Chemiluminescence system (Thermo Scientific, USA) and ImageQuant™ LAS 4000 biomolecular imager (GE Healthcare Life Sciences, USA). Band intensity in images generated with the LAS 4000 was quantified using NIH Image J."}, "[3]": {"system": "non-small cell lung carcinoma", "settings": "non-small cell lung carcinoma-bearing mice; cited from earlier work"}, "p-ERK (Thr^202/Tyr^204) [4]": {"system": "p-ERK (Thr^202/Tyr^204)", "test": "Western blotting for p-ERK, MeWo melanoma cells", "type": "cell-based, human", "settings": "10 or 100 nM, 24 h", "experimental": "as §1\nas §2, with “4695), anti-p38 MAPK antibody (CST, cat. no. 9212), anti-DUSP8 antibody (Abcam, cat. no. ab198175) or anti-c-MAF (BLR045F) antibody (Abcam, cat. no. ab243901). This was followed by incubation with horseradish peroxidase-conjugated secondary goat anti-rabbit (DAKO, cat. no. P0448) or goat anti-mouse (DAKO, cat. no. P0447) antibody.” left out\n(§3) The effect of BT2 on ERK phosphorylation (p-ERK) was evaluated in human melanoma cells given that MAP kinase activation is key to melanoma progression and the paucity of clinically approved ERK inhibitors. […]"}, "MeWo cells": {"system": "MeWo cells", "test": "Apoptosis, flow cytometry with Annexin V-FITC, MeWo", "type": "cell-based, human", "settings": "1 μM, 24 h", "experimental": "(§4) Flow cytometry with Annexin V-FITC. Cells were seeded into 6 well plates in normal culture medium containing 10% FBS. After culturing overnight, the cells were incubated in complete medium containing vehicle, BT2 or SCH772984 at 1 μM and left for 24 h. The culture medium was removed and the cells were washed with PBS. Accutase (Stem Cell Technologies, cat. no. 07920) was used to detach the cells. The cells were then washed and centrifuged at 300 g for 5 min and resuspended at 1×10^6 cells/ml in 500 μl of 1× binding buffer (Annexin V-FITC Apoptosis Staining/Detection Kit, Abcam, cat. no. ab14085). The cells were transferred to 12×75 mm tubes and annexin V-FITC/propidium iodide (PI) was added and incubated for 5 min at 22° C. protected from light. Stained cell suspensions were analyzed by flow cytometry using a BD LSRFortessa X20.\n(§5) The morphology of A375 and MeWo cells exposed to 1 μM of BT2 or SCH772984 for 24 h was also assessed."}, "A375 cells": {"system": "A375 cells", "test": "Apoptosis, flow cytometry with Annexin V-FITC, A375", "type": "cell-based, human", "settings": "1 μM, 24 h", "experimental": "as §4, §5"}, "p-ERK (Thr^202/Tyr^204) [5]": {"system": "p-ERK (Thr^202/Tyr^204)", "test": "Western blotting for p-ERK, A375 melanoma cells", "type": "cell-based, human", "settings": "10 or 100 nM, 24 h", "experimental": "as §1\nas §2, with “4695), anti-p38 MAPK antibody (CST, cat. no. 9212), anti-DUSP8 antibody (Abcam, cat. no. ab198175) or anti-c-MAF (BLR045F) antibody (Abcam, cat. no. ab243901). This was followed by incubation with horseradish peroxidase-conjugated secondary goat anti-rabbit (DAKO, cat. no. P0448) or goat anti-mouse (DAKO, cat. no. P0447) antibody.” left out\nas §3"}, "advanced melanoma": {"system": "advanced melanoma", "settings": "cited from earlier work; for 5 year overall survival: advanced melanoma"}},
  "note": "Like-named read-outs stand apart in the source and are kept apart here.",
  "data": [
    {"compound": "Cc1cnc(NC2CCOCC2)nc1-n1cnc(C(=O)N[C@H](CN)c2cc(F)cc(Cl)c2)c1", "note": "[ASN007]", "values": [
      {"measurement": "efficacy", "setting": "resistant melanoma PDX", "result": "demonstrates efficacy"}
    ]},
    {"compound": "CCN1C(=O)c2cc(N)ccc2Oc2ccccc21", "note": "[BT3, 2-amino-10-ethyldibenzo[b,f][1,4]oxazepin-11(10H)-one]", "values": [
      {"measurement": "effect on PD-1 expression", "setting": "PD-1 [1]", "result": "no inhibitory effect"}
    ]},
    {"compound": "COc1cccc(-c2cc(=O)c3ccccc3o2)c1N", "note": "[PD98059]", "values": [
      {"measurement": "PD-1 expression (Western blot)", "setting": "PD-1 [2]", "result": "no effect on PD-1 expression"}
    ]},
    {"compound": "O=C(NOC[C@H](O)CO)c1ccc(F)c(F)c1Nc1ccc(I)cc1F", "note": "[PD0325901]", "values": [
      {"measurement": "effect on efficacy of anti-PD-1 antibodies", "setting": "[3]", "result": "can enhance the efficacy of anti-PD-1 antibodies"}
    ]},
    {"compound": "O=C(Nc1ccc2[nH]nc(-c3ccncc3)c2c1)[C@@H]1CCN(CC(=O)N2CCN(c3ccc(-c4ncccn4)cc3)CC2)C1", "note": "[SCH772984, reference compound]", "values": [
      {"measurement": "ERK phosphorylation (p-ERK, Western blot)", "setting": "p-ERK (Thr^202/Tyr^204) [4]", "result": "suppressed ERK phosphorylation"},
      {"measurement": "potency in suppressing PD-1 expression, fold less potent than BT2", "setting": "PD-1 [2]; Western blot", "result": "> 10", "unit": "fold"},
      {"measurement": "PD-1 expression (Western blot)", "setting": "PD-1 [2]", "result": "suppressed PD-1 expression"},
      {"measurement": "apoptosis (Annexin V-FITC+ PI−)", "setting": "MeWo cells", "result": "no or less potent pro-apoptotic effects"},
      {"measurement": "apoptosis (Annexin V-FITC+ PI−)", "setting": "A375 cells", "result": "no or less potent pro-apoptotic effects"},
      {"measurement": "ERK phosphorylation (p-ERK, Western blot)", "setting": "p-ERK (Thr^202/Tyr^204) [5]", "result": "suppressed ERK phosphorylation"}
    ]},
    {"compound": "pembrolizumab: anti-PD-1 antibody", "values": [
      {"measurement": "patients with treatment-related adverse events", "setting": "advanced melanoma; advanced melanoma patients", "result": 86, "unit": "%"},
      {"measurement": "5 year overall survival", "setting": "advanced melanoma; all patients", "result": 34, "unit": "%"},
      {"measurement": "5 year overall survival", "setting": "advanced melanoma; treatment-naive patients", "result": 41, "unit": "%"}
    ]}
  ]
}
